Laboratory results: patent US11512079B2, “Heterocycle substituted pyridine derivative antifungal agents” (Amplyx Pharmaceuticals, Inc., priority 2017, dated 2022)
Values after ≈ are worked out from the molar mass of the structure shown.

How the values were obtained:
Format in all cases: cell-based
Cryptococcus gattii = assay: In vitro antifungal assay (Example IX), microdilution broth, MIC; settings: minimum inhibitory concentration (≥50% inhibition), 35° C., 72 h (Cryptococcus), RPMI1640
Summary of the method: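 MIC was determined from OD600 after 72 h at 35 °C for Cryptococcus, in RPMI1640 inoculated at 2.5×10^3 cells/mL. Compounds were tested as a 2-fold series from 2 to 0.0019 μg/mL final, added from DMSO intermediates at a 100-fold dilution.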

Candida albicans 90028 = assay: as above; settings: minimum inhibitory concentration (≥50% inhibition), 35° C., 40-48 h, RPMI1640
Summary of the method: (§1)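 Yeast inocula (2.5×10^3 cells/mL, RPMI1640) were exposed to twofold compound series reaching 2-0.0019 μg/mL final, per CLSI yeast methodology. Incubation at 35° C. ran 40-48 h for Candida albicans 90028 and 72 h for Cryptococcus neoformans H99. MIC endpoints were confirmed by absorbance at 600 nm.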

[1] = test system: Cryptococcus neoformans H99; assay: as above; settings: minimum inhibitory concentration (≥50% inhibition), 35° C., 72 h, RPMI1640
Summary of the method: as §1

[2] = test system: Aspergillus fumigatus MYA3626; assay: In vitro antifungal assay (Example IX), microdilution broth, MEC; settings: minimum effective concentration (shortening of hyphae), 35° C., 40-48 h, RPMI1640
Summary of the method: (§2)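 Read-out is the minimum effective concentration: lowest compound level causing shorter hyphae than in DMSO controls, echinocandin-style. Broth microdilution used conidia or spores harvested from agar plates, cleared of mycelium and clumps, at a final 1-2×10^4 spores/mL in RPMI1640.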

[3] = test system: Rhizomucor pusillus 46342; assay: as above; settings: minimum effective concentration (shortening of hyphae), 35° C., 40-48 h, RPMI1640
Summary of the method: as §2

MIC (Cryptococcus gattii) | MIC (Candida albicans 90028) | MIC [1] | SMILES | minimal effective concentration [2] | minimal effective concentration [3]
> 1 µg/mL | > 1 µg/mL | > 1 µg/mL | Nc1ncccc1-c1cc(Cc2ccc(-c3ccncc3)cc2)no1 [compound 204, 3-(3-(4-(pyridin-4-yl)benzyl)isoxazol-5-yl)pyridin-2-amine] | > 1 µg/mL | > 1 µg/mL
0.01 to 0.1 µg/mL (≈ 0.0278 to 0.278 µM) | 0.01 to 0.1 µg/mL (≈ 0.0278 to 0.278 µM) | 0.01 to 0.1 µg/mL (≈ 0.0278 to 0.278 µM) | Nc1ncccc1-c1cc(Cc2ccc(Cc3cccc(F)c3)cc2)no1 [compound 208, 3-(3-(4-(3-fluorobenzyl)benzyl)isoxazol-5-yl)pyridin-2-amine] | 0.01 to 0.1 µg/mL | 0.1 to 1 µg/mL
0.1 to 1 µg/mL (≈ 0.254 to 2.54 µM) | 0.01 to 0.1 µg/mL (≈ 0.0254 to 0.254 µM) | 0.01 to 0.1 µg/mL (≈ 0.0254 to 0.254 µM) | Nc1ncccc1-c1cc(Cc2ccc(OCc3cccc(Cl)n3)nc2)no1 [compound 222, 3-(3-((6-((6-chloropyridin-2-yl)methoxy)pyridin-3-yl)methyl)isoxazol-5-yl)pyridin-2-amine] | 0.01 to 0.1 µg/mL | > 1 µg/mL
≤ 0.01 µg/mL | 0.01 to 0.1 µg/mL (≈ 0.0264 to 0.264 µM) | ≤ 0.01 µg/mL | Nc1ncccc1-c1cc(Cc2ccc(Oc3cccc(Cl)n3)cc2)no1 [compound 234, 3-(3-(4-((6-chloropyridin-2-yl)oxy)benzyl)isoxazol-5-yl)pyridin-2-amine] | 0.01 to 0.1 µg/mL | 0.1 to 1 µg/mL
≤ 0.01 µg/mL | 0.01 to 0.1 µg/mL (≈ 0.0276 to 0.276 µM) | ≤ 0.01 µg/mL | Nc1ncccc1-c1cc(Cc2ccc(Oc3ncccc3F)cc2)no1 [compound 235, 3-(3-(4-((3-fluoropyridin-2-yl)oxy)benzyl)isoxazol-5-yl)pyridin-2-amine] | 0.01 to 0.1 µg/mL | 0.1 to 1 µg/mL
0.1 to 1 µg/mL (≈ 0.252 to 2.52 µM) | 0.1 to 1 µg/mL (≈ 0.252 to 2.52 µM) | 0.1 to 1 µg/mL (≈ 0.252 to 2.52 µM) | Nc1ncccc1-c1cc(Cc2ccc(Oc3ncc(Cl)cc3F)cc2)no1 [compound 236, 3-(3-(4-((5-chloro-3-fluoropyridin-2-yl)oxy)benzyl)isoxazol-5-yl)pyridin-2-amine] | 0.1 to 1 µg/mL | 0.1 to 1 µg/mL
0.01 to 0.1 µg/mL (≈ 0.0263 to 0.263 µM) | 0.1 to 1 µg/mL (≈ 0.263 to 2.63 µM) | 0.01 to 0.1 µg/mL (≈ 0.0263 to 0.263 µM) | Nc1ncccc1-c1cc(Cc2ccc(Oc3cc(F)cc(F)n3)cc2)no1 [compound 239, 3-(3-(4-((4,6-difluoropyridin-2-yl)oxy)benzyl)isoxazol-5-yl)pyridin-2-amine] | 0.1 to 1 µg/mL | 0.1 to 1 µg/mL
0.01 to 0.1 µg/mL (≈ 0.026 to 0.26 µM) | 0.1 to 1 µg/mL (≈ 0.26 to 2.6 µM) | 0.01 to 0.1 µg/mL (≈ 0.026 to 0.26 µM) | Nc1ncccc1-c1cc(Cc2ccc(Oc3nc(Cl)cs3)cc2)no1 [compound 240, 3-(3-(4-((4-chlorothiazol-2-yl)oxy)benzyl)isoxazol-5-yl)pyridin-2-amine] | 0.1 to 1 µg/mL | 0.1 to 1 µg/mL
0.01 to 0.1 µg/mL (≈ 0.0251 to 0.251 µM) | 0.1 to 1 µg/mL (≈ 0.251 to 2.51 µM) | 0.01 to 0.1 µg/mL (≈ 0.0251 to 0.251 µM) | Nc1ncccc1-c1cc(Cc2ccc(Oc3nc(F)c(F)cc3F)cc2)no1 [compound 241, 3-(3-(4-((3,5,6-trifluoropyridin-2-yl)oxy)benzyl)isoxazol-5-yl)pyridin-2-amine] | 0.01 to 0.1 µg/mL | 0.1 to 1 µg/mL

Continued, molecule first:

SMILES | MIC (Cryptococcus gattii) | MIC (Candida albicans 90028) | MIC [1] | minimal effective concentration [2] | minimal effective concentration [3]
Nc1ncccc1-c1cc(Cc2ccc(-c3ccccn3)cc2)no1 [compound 203, 3-(3-(4-(pyridin-2-yl)benzyl)isoxazol-5-yl)pyridin-2-amine] | 0.1 to 1 µg/mL (≈ 0.305 to 3.05 µM) | > 1 µg/mL | 0.1 to 1 µg/mL (≈ 0.305 to 3.05 µM) | > 1 µg/mL | > 1 µg/mL
Nc1ncccc1-c1cc(Cc2ccc(-c3ccc(F)cc3)nc2)no1 [compound 205, 3-(3-((6-(4-fluorophenyl)pyridin-3-yl)methyl)isoxazol-5-yl)pyridin-2-amine] | > 1 µg/mL | 0.1 to 1 µg/mL (≈ 0.289 to 2.89 µM) | 0.1 to 1 µg/mL (≈ 0.289 to 2.89 µM) | > 1 µg/mL | 0.1 to 1 µg/mL
Nc1ncccc1-c1cc(Cc2ccc(OCc3ccn4ccnc4c3)nc2)no1 [compound 206, 3-(3-((6-(imidazo[1,2-a]pyridine-7-ylmethoxy)pyridin-3-yl)methyl)isoxazol-5-yl)pyridin-2-amine] | > 1 µg/mL | > 1 µg/mL | > 1 µg/mL | > 1 µg/mL | > 1 µg/mL
COc1cc(COc2ccc(Cc3cc(-c4cccnc4N)on3)cn2)c(F)cn1 [compound 207, 3-(3-((6-((5-fluoro-2-methoxypyridin-4-yl)methoxy)pyridin-3-yl)methyl)isoxazol-5-yl)pyridin-2-amine] | 0.1 to 1 µg/mL (≈ 0.245 to 2.45 µM) | 0.1 to 1 µg/mL (≈ 0.245 to 2.45 µM) | 0.01 to 0.1 µg/mL (≈ 0.0245 to 0.245 µM) | 0.01 to 0.1 µg/mL | > 1 µg/mL
CC(C)(O)c1cccc(Cc2ccc(Cc3cc(-c4cccnc4N)on3)cc2)c1 [compound 209, 2-(3-(4-((5-(2-aminopyridin-3-yl)isoxazol-3-yl)methyl)benzyl)phenyl)propan-2-ol] | > 1 µg/mL | > 1 µg/mL | > 1 µg/mL | > 1 µg/mL | > 1 µg/mL
Nc1ncccc1-c1cc(Cc2ccc(Cc3cc(F)cc(F)c3)cc2)no1 [compound 212, 3-(3-(4-(3,5-difluorobenzyl)benzyl)isoxazol-5-yl)pyridin-2-amine] | 0.01 to 0.1 µg/mL (≈ 0.0265 to 0.265 µM) | 0.1 to 1 µg/mL (≈ 0.265 to 2.65 µM) | 0.01 to 0.1 µg/mL (≈ 0.0265 to 0.265 µM) | 0.1 to 1 µg/mL | 0.1 to 1 µg/mL
Nc1ncccc1-c1cc(Cc2ccc(OCCCc3ccccc3)nc2)no1 [compound 213, 3-(3-((6-(3-phenylpropoxy)pyridin-3-yl)methyl)isoxazol-5-yl)pyridin-2-amine] | 0.1 to 1 µg/mL (≈ 0.259 to 2.59 µM) | 0.1 to 1 µg/mL (≈ 0.259 to 2.59 µM) | 0.1 to 1 µg/mL (≈ 0.259 to 2.59 µM) | 0.1 to 1 µg/mL | > 1 µg/mL
COc1cc(F)cc(Cc2ccc(Cc3cc(-c4cccnc4N)on3)cc2)c1 [compound 216, 3-(3-(4-(3-fluoro-5-methoxybenzyl)benzyl)isoxazol-5-yl)pyridin-2-amine] | 0.1 to 1 µg/mL (≈ 0.257 to 2.57 µM) | 0.1 to 1 µg/mL (≈ 0.257 to 2.57 µM) | 0.1 to 1 µg/mL (≈ 0.257 to 2.57 µM) | 0.1 to 1 µg/mL | > 1 µg/mL
Nc1ncccc1-c1cc(Cc2ccc(OCc3ccncc3Cl)nc2)no1 [compound 218, 3-(3-((6-((3-chloropyridin-4-yl)methoxy)pyridin-3-yl)methyl)isoxazol-5-yl)pyridin-2-amine] | > 1 µg/mL | 0.1 to 1 µg/mL (≈ 0.254 to 2.54 µM) | > 1 µg/mL | 0.1 to 1 µg/mL | > 1 µg/mL
Nc1ncccc1-c1cc(Cc2ccc(OCc3csc(Cl)n3)nc2)no1 [compound 220, 3-(3-((6-((2-chlorothiazol-4-yl)methoxy)pyridin-3-yl)methyl)isoxazol-5-yl)pyridin-2-amine] | 0.1 to 1 µg/mL (≈ 0.25 to 2.5 µM) | 0.1 to 1 µg/mL (≈ 0.25 to 2.5 µM) | 0.1 to 1 µg/mL (≈ 0.25 to 2.5 µM) | 0.1 to 1 µg/mL | 0.1 to 1 µg/mL
Nc1ncccc1-c1cc(Cc2ccc(OCc3ccc(Cl)s3)nc2)no1 [compound 221, 3-(3-((6-((5-chlorothiophen-2-yl)methoxy)pyridin-3-yl)methyl)isoxazol-5-yl)pyridin-2-amine] | 0.1 to 1 µg/mL (≈ 0.251 to 2.51 µM) | 0.1 to 1 µg/mL (≈ 0.251 to 2.51 µM) | 0.01 to 0.1 µg/mL (≈ 0.0251 to 0.251 µM) | 0.01 to 0.1 µg/mL | 0.1 to 1 µg/mL
Nc1ncccc1-c1cc(Cc2ccc(OCc3cccc(Br)n3)nc2)no1 [compound 223, 3-(3-((6-((6-bromopyridin-2-yl)methoxy)pyridin-3-yl)methyl)isoxazol-5-yl)pyridin-2-amine] | 0.1 to 1 µg/mL (≈ 0.228 to 2.28 µM) | 0.01 to 0.1 µg/mL (≈ 0.0228 to 0.228 µM) | 0.1 to 1 µg/mL (≈ 0.228 to 2.28 µM) | 0.01 to 0.1 µg/mL | > 1 µg/mL
N#CCCOc1ccc(Cc2cc(-c3cccnc3N)on2)cn1 [compound 224, 3-((5-((5-(2-aminopyridin-3-yl)isoxazol-3-yl)methyl)pyridin-2-yl)oxy)propanenitrile] | > 1 µg/mL | > 1 µg/mL | > 1 µg/mL | > 1 µg/mL | > 1 µg/mL
C#CCCOc1ccc(Cc2cc(-c3cccnc3N)on2)cn1 [compound 225, 3-(3-((6-(but-3-yn-1-yloxy)pyridin-3-yl)methyl)isoxazol-5-yl)pyridin-2-amine] | 0.1 to 1 µg/mL (≈ 0.312 to 3.12 µM) | 0.1 to 1 µg/mL (≈ 0.312 to 3.12 µM) | 0.1 to 1 µg/mL (≈ 0.312 to 3.12 µM) | 0.01 to 0.1 µg/mL | 0.1 to 1 µg/mL
Nc1ncccc1-c1cc(Cc2ccc(OCc3cccc(F)n3)nc2)no1 [compound 226, 3-(3-((6-((6-fluoropyridin-2-yl)methoxy)pyridin-3-yl)methyl)isoxazol-5-yl)pyridin-2-amine] | 0.1 to 1 µg/mL (≈ 0.265 to 2.65 µM) | 0.01 to 0.1 µg/mL (≈ 0.0265 to 0.265 µM) | 0.01 to 0.1 µg/mL (≈ 0.0265 to 0.265 µM) | 0.01 to 0.1 µg/mL | > 1 µg/mL
[N-]=[N+]=Nc1cccc(NCc2ccc(Cc3cc(-c4cccnc4N)on3)cc2)c1 [compound 231, 3-(3-(4-(((3-azidophenyl)amino)methyl)benzyl)isoxazol-5-yl)pyridin-2-amine] | 0.01 to 0.1 µg/mL (≈ 0.0252 to 0.252 µM) | 0.1 to 1 µg/mL (≈ 0.252 to 2.52 µM) | 0.01 to 0.1 µg/mL (≈ 0.0252 to 0.252 µM) | 0.01 to 0.1 µg/mL | 0.1 to 1 µg/mL
Nc1ncccc1-c1cc(Cc2ccc(Nc3c(F)cccc3F)nc2)no1 [compound 237, 5-((5-(2-aminopyridin-3-yl)isoxazol-3-yl)methyl)-N-(2,6-difluorophenyl)pyridin-2-amine] | 0.01 to 0.1 µg/mL (≈ 0.0264 to 0.264 µM) | 0.01 to 0.1 µg/mL (≈ 0.0264 to 0.264 µM) | 0.01 to 0.1 µg/mL (≈ 0.0264 to 0.264 µM) | 0.1 to 1 µg/mL | > 1 µg/mL
